Measurements: ChEMBL document CHEMBL4265967, “Design, synthesis, and evaluation of carboxyl-modified oseltamivir derivatives with improved lipophilicity as neuraminidase inhibitors” (Bioorg Med Chem Lett, 2018)

Tests used:
[1] = biological target: Neuraminidase (Influenza A virus) (UniProt B4URF0); settings: A/Anhui/2005(H5N1), at 10 µM
[2] = biological target: Neuraminidase (Influenza A virus) (UniProt B4URF0); settings: A/Anhui/2005(H5N1), at 1 µM
in vitro [3] = settings: human, liver microsomes
in vitro [4] = settings: human, liver microsomes; remark: listed apart in the source
Neuraminidase = Neuraminidase (Influenza A virus, UniProt B4URF0); set-up: species or system A/Anhui/2005(H5N1)
Chain of Neuraminidase (B4URF0 whole entry): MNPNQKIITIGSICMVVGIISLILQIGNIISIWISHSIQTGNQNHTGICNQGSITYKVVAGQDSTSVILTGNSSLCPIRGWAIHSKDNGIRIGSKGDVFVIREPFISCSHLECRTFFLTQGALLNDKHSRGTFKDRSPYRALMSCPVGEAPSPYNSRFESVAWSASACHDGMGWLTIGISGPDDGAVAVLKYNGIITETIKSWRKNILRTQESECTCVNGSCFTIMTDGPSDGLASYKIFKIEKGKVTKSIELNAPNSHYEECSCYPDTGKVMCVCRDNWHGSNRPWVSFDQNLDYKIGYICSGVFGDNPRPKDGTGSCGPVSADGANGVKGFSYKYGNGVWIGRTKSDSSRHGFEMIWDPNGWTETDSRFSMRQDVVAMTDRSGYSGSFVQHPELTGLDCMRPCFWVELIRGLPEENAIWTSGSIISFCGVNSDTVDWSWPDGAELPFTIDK

in vitro [5] = settings: human, liver microsomes; remark: listed apart in the source
in vitro [6] = settings: human, liver microsomes; remark: listed apart in the source
[7] = Octanol-phosphate buffered saline partition coefficient, log D of compound at pH 7.4 at 1 mg after 24 hrs by HPLC analysis; type: physicochemical
in vitro [8] = settings: human, liver microsomes; remark: listed apart in the source
in vitro [9] = settings: human, liver microsomes; remark: listed apart in the source
[10] = Octanol-phosphate buffered saline partition coefficient, log D of compound at pH 7 at 1 mg after 24 hrs by HPLC analysis; type: physicochemical
[11] = Octanol-phosphate buffered saline partition coefficient, log D of compound at pH 7.6 at 1 mg after 24 hrs by HPLC analysis; type: physicochemical
[12] = Octanol-phosphate buffered saline partition coefficient, log D of compound at pH 6.8 at 1 mg after 24 hrs by HPLC analysis; type: physicochemical
in vitro [13] = settings: human, liver microsomes; remark: listed apart in the source
in vitro [14] = settings: human, liver microsomes; remark: listed apart in the source

Chain of Neuraminidase (Influenza A virus) (B4URF0 as listed by the source): as the sequence (B4URF0 whole entry) above

CCC(C)C[C@@H](NC(=O)C1=C[C@@H](OC(CC)CC)[C@H](NC(C)=O)[C@@H](N)C1)C(=O)OC (some centres not stated)
inhibition [1]: 50.5%
inhibition [2]: 23.6%

CCC(CC)O[C@@H]1C=C(C(=O)NCc2ccc(Cl)c(Cl)c2)C[C@H](N)[C@H]1NC(C)=O
inhibition [1]: 21.4%

O=C(O)Cc1ccccc1Nc1c(Cl)cccc1Cl [DICLOFENAC]
half-life at 1 µM (in vitro [3]): 11.6 min
CLint scaled at 1 µM (in vitro [4]): 108 mL/min/kg
microsomal CLint at 1 µM (in vitro [4]): 120 µL/min/mg

CCC(CC)O[C@@H]1C=C(C(=O)N[C@H](Cc2ccccc2)C(=O)OC)C[C@H](N)[C@H]1NC(C)=O
inhibition [1]: 63.2%
inhibition [2]: 24.9%

CCC(CC)O[C@@H]1C=C(C(=O)N[C@@H](CC(=O)OC)c2ccccc2)C[C@H](N)[C@H]1NC(C)=O
inhibition [1]: 56.7%
inhibition [2]: 26.5%

CCCC[C@@H](NC(=O)C1=C[C@@H](OC(CC)CC)[C@H](NC(C)=O)[C@@H](N)C1)C(=O)O
IC50 (Neuraminidase): 30.7 µM
inhibition [1]: 85.5%

CCC(CC)O[C@@H]1C=C(C(=O)N[C@@H](C(=O)O)c2ccccc2)C[C@H](N)[C@H]1NC(C)=O
inhibition [1]: 8.3%

CCC(CC)O[C@@H]1C=C(C(=O)N[C@@H](C(=O)O)C(C)C)C[C@H](N)[C@H]1NC(C)=O
IC50 (Neuraminidase): 4.18 µM
inhibition [1]: 91.4%
inhibition [2]: 57.6%

CCC(CC)O[C@@H]1C=C(C(=O)NC2CC2)C[C@H](N)[C@H]1NC(C)=O
inhibition [1]: 55.3%
inhibition [2]: 5%

CCC(CC)O[C@@H]1C=C(C(=O)N[C@H](Cc2ccccc2)C(=O)O)C[C@H](N)[C@H]1NC(C)=O
IC50 (Neuraminidase): 21.9 µM
inhibition [1]: 80.4%
inhibition [2]: 21.1%

CCC(CC)O[C@@H]1C=C(C(=O)N[C@@H](C(=O)O)C(C)(C)C)C[C@H](N)[C@H]1NC(C)=O
half-life at 1 µM (in vitro [3]): > 145 min
remaining at 20 min, 1 µM (in vitro [5]): 106%
remaining at 0.5 h, 1 µM (in vitro [6]): 95.5%
IC50 (Neuraminidase): 1.3 µM
inhibition [1]: 91%
logD at 24 h [7]: -0.116
remaining at 1 h, 1 µM (in vitro [8]): 84.1%
remaining at 5 min, 1 µM (in vitro [9]): 111%
CLint scaled at 1 µM (in vitro [4]): < 8.6 mL/min/kg
microsomal CLint at 1 µM (in vitro [4]): < 9.6 µL/min/mg
logD at 24 h [10]: -0.167
logD at 24 h [11]: -0.209
logD at 24 h [12]: -0.0458
remaining at 10 min, 1 µM (in vitro [13]): 87.3%
remaining at 1 h, 1 µM (in vitro [14]): 92.9%
inhibition [2]: 58.3%

CCC(CC)O[C@@H]1C=C(C(=O)NCCCCc2ccccc2)C[C@H](N)[C@H]1NC(C)=O
inhibition [1]: 29.6%
inhibition [2]: 24.7%

C[C@]12CC[C@H]3[C@@H](CCC4=CC(=O)CC[C@@]43C)[C@@H]1CC[C@@H]2O [TESTOSTERONE]
remaining at 20 min, 1 µM (in vitro [5]): 37.8%
remaining at 0.5 h, 1 µM (in vitro [6]): 21.5%
remaining at 1 h, 1 µM (in vitro [8]): 5.2%
remaining at 5 min, 1 µM (in vitro [9]): 64.8%
remaining at 10 min, 1 µM (in vitro [13]): 58.9%
remaining at 1 h, 1 µM (in vitro [14]): 99.3%

CCC(CC)O[C@@H]1C=C(C(=O)NCCCc2ccccc2)C[C@H](N)[C@H]1NC(C)=O
inhibition [1]: 19.3%
inhibition [2]: 13.5%

CCC(CC)O[C@@H]1C=C(C(=O)N[C@H](C)C(=O)O)C[C@H](N)[C@H]1NC(C)=O
IC50 (Neuraminidase): 24.4 µM
inhibition [1]: 81.1%
inhibition [2]: 27.8%

CCC(CC)O[C@@H]1C=C(C(=O)N[C@H](CC(C)C)C(=O)OC)C[C@H](N)[C@H]1NC(C)=O
inhibition [1]: 41.7%
inhibition [2]: 13.1%

CCC(CC)O[C@@H]1C=C(C(=O)N[C@H](CC(C)C)C(=O)O)C[C@H](N)[C@H]1NC(C)=O
IC50 (Neuraminidase): 6.55 µM
inhibition [1]: 84.4%
inhibition [2]: 38.9%

CCC(CC)O[C@@H]1C=C(C(=O)N[C@@H](C(=O)O)C2CC2)C[C@H](N)[C@H]1NC(C)=O
IC50 (Neuraminidase): 46.4 µM
inhibition [1]: 85.7%
